Measurements from patent US10738028B2, “Spiro three-membered ring, spiro five-membered ring peptide deformylase inhibitor and use thereof in antibacteria and anti-tumor” (priority 2016, dated 2020).

Key:
Assay type in all cases: cell-based
[1] = test system: methicillin-sensitive Staphylococcus epidermidis (MSSE); test: MIC, two-fold agar dilution (CLSI), clinical isolates
Method in brief: (§1)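 Susceptibility was tested using CLSI two-fold agar dilution against the strains examined.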

[2] = test system: Escherichia coli (including ESBLs, non-ESBLs); test: as above
Method in brief: as §1

[3] = test system: methicillin-resistant Staphylococcus epidermidis (MRSE); test: as above
Method in brief: as §1

[4] = test system: Moraxella catarrhalis (BCA); test: as above
Method in brief: as §1

[5] = test system: Enterococcus faecalis (EFA); test: as above
Method in brief: as §1

[6] = test system: methicillin-resistant Staphylococcus aureus (MRSA); test: as above
Method in brief: as §1

[7] = test system: Enterococcus faecium (EFM); test: as above
Method in brief: as §1

[8] = test system: methicillin-sensitive Staphylococcus aureus (MSSA); test: as above
Method in brief: as §1

[9] = test system: Streptococcus pneoumoniae (SPN); test: as above
Method in brief: as §1

[10] = test system: HCT-116 colorectal cancer cell line; test: CCK-8 proliferation inhibition; conditions: Homo sapiens, HCT-116, 72 h, concentration of 30 μM; 72 hours; CCK-8; read-out: HCT116 inhibition rate/%
Method in brief: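 Cells were plated overnight at 2000 cells/well, then compound in culture medium was added at a range of final concentrations. After 72 hours in a CO2 incubator, medium was replaced with 1:10 CCK-8 solution for the read-out.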

CCCC[C@H](CC(=O)NO)C(=O)N1CC2(CC2)C[C@H]1C(=O)Nc1cnn(CCN(C)C)c1 [Example 52, (S)—N-(1-(2-(dimethylamino)ethyl)-1H-pyrazol-4-yl)-5-((R)-2-(2-(hydroxyamino)-2-oxoethyl)hexanoyl)-5-spiro[2.4]heptane-6-carboxamide]
> 32 µg/mL: Anti-bacterial activity (MIC), strain MSSE 15-3 ([1]; clinical isolate MSSE 15-3) | Anti-bacterial activity (MIC), strain MSSE 15-4 ([1]; clinical isolate MSSE 15-4) | Anti-bacterial activity (MIC), strain MSSE 15-5 ([1]; clinical isolate MSSE 15-5) | Anti-bacterial activity (MIC), strain MSSE 15-6 ([1]; clinical isolate MSSE 15-6) | Anti-bacterial activity (MIC), strain ECO+ 15-1 ([2]; clinical isolate ECO+ 15-1) | Anti-bacterial activity (MIC), strain ECO+ 15-2 ([2]; clinical isolate ECO+ 15-2) | Anti-bacterial activity (MIC), strain ECO+ 15-3 ([2]; clinical isolate ECO+ 15-3) | Anti-bacterial activity (MIC), strain ECO+ 15-4 ([2]; clinical isolate ECO+ 15-4) | Anti-bacterial activity (MIC), strain ECO− 15-1 ([2]; clinical isolate ECO− 15-1) | Anti-bacterial activity (MIC), strain ECO− 15-2 ([2]; clinical isolate ECO− 15-2) | Anti-bacterial activity (MIC), strain ECO− 15-3 ([2]; clinical isolate ECO− 15-3) | Anti-bacterial activity (MIC), strain ECO− 15-4 ([2]; clinical isolate ECO− 15-4) | Anti-bacterial activity (MIC), strain MRSE 15-1 ([3]; clinical isolate MRSE 15-1) | Anti-bacterial activity (MIC), strain MRSE 15-2 ([3]; clinical isolate MRSE 15-2) | Anti-bacterial activity (MIC), strain MRSE 15-3 ([3]; clinical isolate MRSE 15-3) | Anti-bacterial activity (MIC), strain MRSE 15-7 ([3]; clinical isolate MRSE 15-7) | Anti-bacterial activity (MIC), strain BCA 14-1 ([4]; clinical isolate BCA 14-1) | Anti-bacterial activity (MIC), strain BCA 14-4 ([4]; clinical isolate BCA 14-4) | Anti-bacterial activity (MIC), strain BCA 14-5 ([4]; clinical isolate BCA 14-5) | Anti-bacterial activity (MIC), strain BCA 14-6 ([4]; clinical isolate BCA 14-6) | Anti-bacterial activity (MIC), strain BCA 14-7 ([4]; clinical isolate BCA 14-7) | Anti-bacterial activity (MIC), strain BCA 14-8 ([4]; clinical isolate BCA 14-8) | Anti-bacterial activity (MIC), strain BCA 14-10 ([4]; clinical isolate BCA 14-10) | Anti-bacterial activity (MIC), strain EFA 15-1 ([5]; clinical isolate EFA 15-1) | Anti-bacterial activity (MIC), strain EFA 15-2 ([5]; clinical isolate EFA 15-2) | Anti-bacterial activity (MIC), strain EFA 15-3 ([5]; clinical isolate EFA 15-3) | Anti-bacterial activity (MIC), strain EFA 15-4 ([5]; clinical isolate EFA 15-4) | Anti-bacterial activity (MIC), strain EFA 15-5 ([5]; clinical isolate EFA 15-5) | Anti-bacterial activity (MIC), strain EFA 15-6 ([5]; clinical isolate EFA 15-6) | Anti-bacterial activity (MIC), strain EFA 15-9 ([5]; clinical isolate EFA 15-9) | Anti-bacterial activity (MIC), strain MRSA 15-1 ([6]; clinical isolate MRSA 15-1) | Anti-bacterial activity (MIC), strain MRSA 15-2 ([6]; clinical isolate MRSA 15-2) | Anti-bacterial activity (MIC), strain MRSA 15-3 ([6]; clinical isolate MRSA 15-3) | Anti-bacterial activity (MIC), strain MRSA 15-4 ([6]; clinical isolate MRSA 15-4) | Anti-bacterial activity (MIC), strain EFM 15-1 ([7]; clinical isolate EFM 15-1) | Anti-bacterial activity (MIC), strain EFM 15-2 ([7]; clinical isolate EFM 15-2) | Anti-bacterial activity (MIC), strain EFM 15-3 ([7]; clinical isolate EFM 15-3) | Anti-bacterial activity (MIC), strain EFM 15-4 ([7]; clinical isolate EFM 15-4) | Anti-bacterial activity (MIC), strain MSSA 15-3 ([8]; clinical isolate MSSA 15-3) | Anti-bacterial activity (MIC), strain MSSA 15-4 ([8]; clinical isolate MSSA 15-4) | Anti-bacterial activity (MIC), strain MSSA 15-5 ([8]; clinical isolate MSSA 15-5) | Anti-bacterial activity (MIC), strain MSSA 15-6 ([8]; clinical isolate MSSA 15-6)
-1%: inhibition at 30 µM [10]
16 µg/mL: Anti-bacterial activity (MIC), strain EFM 15-5 ([7]; clinical isolate EFM 15-5) | Anti-bacterial activity (MIC), strain EFM 15-6 ([7]; clinical isolate EFM 15-6)
8 µg/mL: Anti-bacterial activity (MIC), strain SPN 16-2 ([9]; clinical isolate SPN 16-2) | Anti-bacterial activity (MIC), strain SPN 16-4 ([9]; clinical isolate SPN 16-4)
